Assay results as given in patent EP0534396B1, “2-Substituted indane-2-carboxyalkyl derivatives useful as inhibitors of enkephalinase and ace” (MERRELL PHARMACEUTICALS INC., priority 1991, dated 1993).
pKi: −log10 of the molar value.

What was measured:
[1] = biological target: ACE (Homo sapiens, UniProt P12821); experiment: ACE inhibition, spectrophotometric enzyme assay; format: biochemical; settings: spectrophotometric substrate of Holmquist et al.; buffer system of Ryan
Excerpt: The enzymatic activity of ACE is monitored using the spectrophotometric substrate described by Holmquist et al. [Anal.Biochem. 95, 540-548 (1979)] and the buffer system described by Ryan [Methods of Enzymatic Analysis, 3rd ed., H. U. Bergmeyer, editor; vol. V, Verlag Chemie, Weinheim, 1983, pp. 20-34].

[2] = biological target: T1, Enkephalinase (Rattus norvegicus, UniProt P07861); experiment: Enkephalinase inhibition, fluorometric enzyme assay; format: biochemical; settings: enzyme partially purified from rat kidney; 50mM HEPES buffer (pH 7.4); 12 µM substrate dansyl-D-AlaGly(p-nitro)PheGly; 25°C
T1 construct: The enzyme is extracted from the microvilli fraction by using Triton X-100; from tissue; host or cells: rat kidney (microvilli fraction)
T1 sequence (P07861 1-750): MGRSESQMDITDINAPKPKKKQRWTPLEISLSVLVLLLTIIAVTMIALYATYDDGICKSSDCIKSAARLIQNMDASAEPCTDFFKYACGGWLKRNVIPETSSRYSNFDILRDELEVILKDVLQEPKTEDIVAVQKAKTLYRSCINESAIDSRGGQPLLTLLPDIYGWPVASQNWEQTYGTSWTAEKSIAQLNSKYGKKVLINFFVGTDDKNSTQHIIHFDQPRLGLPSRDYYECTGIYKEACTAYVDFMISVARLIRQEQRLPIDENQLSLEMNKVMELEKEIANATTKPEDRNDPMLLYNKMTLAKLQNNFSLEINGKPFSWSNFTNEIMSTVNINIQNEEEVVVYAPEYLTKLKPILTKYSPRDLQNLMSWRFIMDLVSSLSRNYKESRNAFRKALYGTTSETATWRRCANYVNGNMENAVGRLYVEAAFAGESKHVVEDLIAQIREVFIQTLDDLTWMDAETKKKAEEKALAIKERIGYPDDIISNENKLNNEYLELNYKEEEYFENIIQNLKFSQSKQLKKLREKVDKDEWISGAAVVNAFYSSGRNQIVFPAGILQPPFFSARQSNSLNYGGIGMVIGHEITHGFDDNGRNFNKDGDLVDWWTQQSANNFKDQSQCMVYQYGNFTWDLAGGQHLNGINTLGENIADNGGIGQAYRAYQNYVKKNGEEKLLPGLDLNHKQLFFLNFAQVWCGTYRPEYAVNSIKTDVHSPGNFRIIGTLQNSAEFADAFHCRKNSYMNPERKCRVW
Excerpt: Enkephalinase is partially purified from rat kidney. The enzyme is extracted from the microvilli fraction by using Triton X-100 according to the method of Malfroy and Schwartz [J.Biol.Chem. 259, 14365-14370 (1984)] or by using a proteolytic treatment according to the method of Almenoff and Orlowski [Biochem. 22, 590-599 (1983)]. The enzyme is further purified by anion exchange chromatography (Mono Q™ column, Pharmacia) using a Pharmacia FPLC system. The enzyme activity may be measured by the fluorometric methods of Florentin et al. [Anal.Biochem. 141, 62-69 (1984)] or of Almenoff and Orlowski [J.Neurochemistry 42, 151-157 (1984)]. The enzyme is assayed in 50mM HEPES buffer (pH 7.4) in a 3.0 mL reaction volume containing 12 µM of the substrate dansyl-D-AlaGly(p-nitro)PheGly (Km=40µM) at 25°C. The substrate (and inhibitor) is added from a concentrated stock solution in DMSO (up to 0.1 mL DMSO final volume). The enzyme in a small volume (approximately 0.1 µg of FPLC purified protein) is added to initiate the reaction and the rate of fluorescense increase is recorded continuously using a fluorometer (excitation at 339nm, emission at 562nm).

ACE, sequence (P12821 30-1306, species assumed): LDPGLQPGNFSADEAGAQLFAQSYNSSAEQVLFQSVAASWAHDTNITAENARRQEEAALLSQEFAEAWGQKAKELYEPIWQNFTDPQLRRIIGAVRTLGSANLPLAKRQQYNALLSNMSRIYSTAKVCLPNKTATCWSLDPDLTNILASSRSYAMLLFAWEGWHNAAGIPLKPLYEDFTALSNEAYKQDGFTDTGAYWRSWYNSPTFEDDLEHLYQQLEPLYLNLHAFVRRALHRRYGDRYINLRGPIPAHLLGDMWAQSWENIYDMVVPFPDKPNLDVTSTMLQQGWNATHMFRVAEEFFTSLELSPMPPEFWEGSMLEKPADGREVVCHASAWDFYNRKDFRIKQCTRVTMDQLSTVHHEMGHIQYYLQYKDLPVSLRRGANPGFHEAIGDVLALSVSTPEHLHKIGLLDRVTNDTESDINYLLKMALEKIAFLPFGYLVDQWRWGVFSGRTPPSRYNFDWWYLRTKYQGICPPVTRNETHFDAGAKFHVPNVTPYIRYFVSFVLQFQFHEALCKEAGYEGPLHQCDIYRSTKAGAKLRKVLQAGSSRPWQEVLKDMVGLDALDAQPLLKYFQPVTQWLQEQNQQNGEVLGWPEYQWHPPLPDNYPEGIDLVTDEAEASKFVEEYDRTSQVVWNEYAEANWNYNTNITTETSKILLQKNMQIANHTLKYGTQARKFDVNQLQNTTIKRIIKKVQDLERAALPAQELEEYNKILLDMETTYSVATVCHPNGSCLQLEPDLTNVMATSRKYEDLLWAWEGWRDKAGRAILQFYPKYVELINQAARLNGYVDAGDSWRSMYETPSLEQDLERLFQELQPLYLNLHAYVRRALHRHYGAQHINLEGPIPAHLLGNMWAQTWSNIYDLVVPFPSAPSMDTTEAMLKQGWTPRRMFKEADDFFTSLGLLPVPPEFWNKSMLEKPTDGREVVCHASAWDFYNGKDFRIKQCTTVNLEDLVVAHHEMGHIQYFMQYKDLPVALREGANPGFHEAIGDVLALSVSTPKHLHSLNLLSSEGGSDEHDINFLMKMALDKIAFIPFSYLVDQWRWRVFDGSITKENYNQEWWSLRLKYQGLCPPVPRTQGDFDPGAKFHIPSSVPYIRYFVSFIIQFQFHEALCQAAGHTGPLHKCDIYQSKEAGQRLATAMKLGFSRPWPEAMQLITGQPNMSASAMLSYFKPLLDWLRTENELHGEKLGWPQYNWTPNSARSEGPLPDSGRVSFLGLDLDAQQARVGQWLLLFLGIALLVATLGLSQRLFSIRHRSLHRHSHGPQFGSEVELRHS

pKi [1]	pKi [2]	Compound
> 6.98	> 9.70	O=C(O)CC1(C(=O)N[C@H]2Cc3ccccc3[C@H]3CCC[C@@H](C(=O)O)N3C2=O)Cc2ccccc2C1 (relative stereo) [102,353, [4S-[4α, 7α(R*), 12bβ]]-7-[(2-Carboxymethyl-indan-2-yl)carbonylamino]-1,2,3,4,6,7,8,12b-octahydro-6-oxopyrido[2,1-a][2]benzazepine-4-carboxylic acid]
–	9.40	O=C(O)CC1(C(=O)N[C@H]2Cc3ccccc3[C@H]3CCC[C@@H](C(=O)O)N3C2=O)CCCC1 (relative stereo) [100,137, [4S-[4α, 7α(R*), 12bβ]]-7-[(1-Carboxymethyl-cyclopent-1-yl)carbonylamino]-1,2,3,4,6,7,8,12b-octahydro-6-oxopyrido[2,1-a][2]benzazepine-4-carboxylic acid]
